Measured values published in paper PMC4220862 (Inorganic Chemistry, 2014).

Experiments:
[1] = biological target: T1, amyloid β peptide (Aβ40 fibrils) (Homo sapiens, UniProt P05067); assay: ThT fluorescence competition assay with Aβ[…] fibrils; type: binding
[2] = biological target: T1, amyloid β peptide (Aβ40 fibrils); assay: direct fluorescence titration of Aβ[…] fibrils, one-site fit; type: binding

T1 sequence (P05067 672-711): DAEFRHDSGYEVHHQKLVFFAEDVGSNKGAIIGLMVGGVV

Row | SMILES | Ki [1] [nM] | Kd [2] [nM]
1 | COc1cccc(-c2nc3ccccc3s2)c1O [L2, 2-(2-hydroxy-3-methoxyphenyl)benzothiazole] | 15 ± 10 | 
2 | CCN(CC)c1ccc(-c2nc3ccccc3s2)c(O)c1 [L1, 2-[2-hydroxy-4-(diethylamino)phenyl]benzothiazole] |  | 4700 ± 300
